The text below walks through data of patent US20260022143A1, “Cyclic Peptide Inhibitors of IL-23” (JANSSEN PHARMACEUTICA NV, priority 2022, published 2026).

Starred links: 1 amine or outer side, 2 acyl side, 3 side chain; linkers in the order of their positions; H or OH if unused. Positions of bridges follow the written chain, without caps; N, C: chain ends. Non-standard residues stand in square brackets, D forms with d. Residues, ends and D or L forms follow the SMILES beside them. Groups on a side chain read outwards from the residue. *: point of attachment. Me3N+(CH2)2O(CH2)2O(CH2)2CO = C[N+](C)(C)CCOCCOCCC(=O)*; CH2CH2OCH2CH2OCH2CH2NMe3+ = C[N+](C)(C)CCOCCOCC*; Trp(7-Me) = Cc1cccc2c(C[C@H](N)C(=O)O)c[nH]c12; d(hLys(Me3)) = C[N+](C)(C)CCCCC[C@@H](N)C(=O)O; Hexanoyl(6-NMe3+) = C[N+](C)(C)CCCCCC(=O)*; dLys(Me3) = C[N+](C)(C)CCCC[C@@H](N)C(=O)O; 3Pal(5-Me) = Cc1cncc(C[C@H](N)C(=O)O)c1; γGlu = O=C(O)[C@H](CCC(=O)[*:2])N[*:1]; 2Nal = N[C@@H](Cc1ccc2ccccc2c1)C(=O)O; AEF = NCCOc1ccc(C[C@H](N)C(=O)O)cc1; 3Pal = N[C@@H](Cc1cccnc1)C(=O)O; Lys(Me) = CNCCCC[C@H](N)C(=O)O; X53 = C[N+]1(CCOCCOCC*)CCOCC1; NMeK = CN[C@@H](CCCCN)C(=O)O; Pen = CC(C)(S)[C@H](N)C(=O)O; Lauroyl = CCCCCCCCCCCC(=O)*; Thp = NC1(C(=O)O)CCOCC1; X3 = C[N+](C)(C)CCCCC*; AEEA = NCCOCCOCC(=O)O; Sar = CNCC(=O)O

The target of one data set is T1, IL-23R (Homo sapiens, UniProt Q5VWK5).
T1 construct: host or cells: HEK293
T1 sequence (Q5VWK5 24-629): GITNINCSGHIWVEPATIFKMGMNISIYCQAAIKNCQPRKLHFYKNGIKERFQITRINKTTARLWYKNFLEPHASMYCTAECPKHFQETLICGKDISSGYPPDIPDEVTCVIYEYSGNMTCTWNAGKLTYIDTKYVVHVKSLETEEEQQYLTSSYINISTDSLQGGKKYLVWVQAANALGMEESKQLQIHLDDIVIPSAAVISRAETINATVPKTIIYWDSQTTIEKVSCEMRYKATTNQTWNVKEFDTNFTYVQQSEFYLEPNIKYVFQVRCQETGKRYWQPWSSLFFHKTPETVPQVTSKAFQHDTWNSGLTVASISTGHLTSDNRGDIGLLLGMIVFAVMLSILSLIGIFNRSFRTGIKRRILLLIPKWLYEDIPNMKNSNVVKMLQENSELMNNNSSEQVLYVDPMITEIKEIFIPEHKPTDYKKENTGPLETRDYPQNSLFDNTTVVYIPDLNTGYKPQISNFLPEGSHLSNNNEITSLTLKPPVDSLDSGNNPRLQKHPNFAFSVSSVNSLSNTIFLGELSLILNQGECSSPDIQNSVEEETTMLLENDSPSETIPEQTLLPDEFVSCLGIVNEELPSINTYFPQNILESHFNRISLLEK
As to the kind of experiment: IL23R Reporter Assay. The data set is classed as cell-based. The note with it: HEK293 cells containing IL-23R, IL-12RP1 and STAT-inducible firefly luciferase reporter; 10 ng/mL IL-23 (EC90); 5 h at 37° C.; read-out: IL23R Reporter Assay. Background: Reporter assays use an easily measured gene product as a stand-in for the process of interest.

The nature of data set [1]: Exposed Polar Surface Area (EPSA). The data set is classed as physicochemical. The note with it: SFC on Chirex 3014 column; sample 1 mM DMSO stock; read-out: EPSA. In a few lines:
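Polarity measured by SFC on a Chirex 3014 column (35 °C, 4 mL/min) with methanol/ammonium formate in CO2 as gradient eluent. Retention times were normalised to EPSA (Å^2) against eight reference compounds.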

Regarding `CCCCCCCCCCCC(=O)N[C@@H](CCC(=O)NCCOCCOCC(=O)NCCOCCOCC(=O)NCCCC[C@@H]1NC(=O)[C@@H](NC(=O)CCOCCOCC[N+](C)(C)C)C(C)(C)SSC(C)(C)[C@@H](C(=O)N[C@@H](Cc2ccc(OCCCCC[N+](C)(C)C)cc2)C(=O)N[C@@H](Cc2ccc3ccccc3c2)C(=O)NC2(C(=O)N[C@@H](CCCCN(C)C(C)=O)C(=O)N[C@@H](CC(N)=O)C(=O)N[C@@H](Cc3cccnc3)C(=O)N(C)[C@@H](CCCCNC(=O)COCCOCCNC(=O)COCCOCCNC(=O)CC[C@H](NC(=O)CCCCCCCCCCC)C(=O)O)C(N)=O)CCOCC2)NC(=O)[C@H](CCCCNC(C)=O)NC(=O)[C@H](Cc2c[nH]c3c(C)cccc23)NC(=O)[C@H]([C@@H](C)O)NC1=O)C(=O)O` [compound 356, cPEG3aCO-Pen(3)-K(PEG2PEG2gEC12)-T-7MeW-K(Ac)-Pen(3)-TMAPF-2Nal-THP-K(NMeac)-N-3Pya-NMeK(PEG2PEG2gEC12)-CONH2] ({Me3N+(CH2)2O(CH2)2O(CH2)2CO}-[Pen]K([AEEA-AEEA-γGlu-Lauroyl])T[Trp(7-Me)]K(Ac)[Pen]Y(X3)[2Nal][Thp][Lys(Me)](Ac)N[3Pal][NMeK]([AEEA-AEEA-γGlu-Lauroyl])-NH2; disulfide 1-6), at IL-23R, the IC50 is 280 nM. Moreover, in data set [1], the EPSA is 174 A^2.
The corresponding values for `CC(=O)NCCCC[C@@H]1NC(=O)[C@H](Cc2c[nH]c3c(C)cccc23)NC(=O)[C@H]([C@@H](C)O)NC(=O)[C@H](CC(N)=O)NC(=O)[C@@H](NC(=O)[C@@H](CCCNC(=N)N)NC(C)=O)C(C)(C)SSC(C)(C)[C@@H](C(=O)N[C@@H](Cc2ccc(OCCCCC[N+](C)(C)C)cc2)C(=O)N[C@@H](Cc2ccc3ccccc3c2)C(=O)NC2(C(=O)N[C@@H](CCC(=O)O)C(=O)N[C@@H](CC(N)=O)C(=O)N[C@@H](Cc3cncc(C)c3)C(=O)N(C)CC(N)=O)CCOCC2)NC1=O` [compound 543, MeCO-r-Pen(3)-N-T-7MeW-K(Ac)-Pen(3)-TMAPF-2Nal-THP-E-N-5MePyridinAla-Sar-CONH2] (Ac-[dR][Pen]NT[Trp(7-Me)]K(Ac)[Pen]Y(X3)[2Nal][Thp]EN[3Pal(5-Me)][Sar]-NH2; disulfide 2-7) are 2 nM and 179 A^2.
The like results for `CC(=O)NCCCC[C@@H]1NC(=O)[C@H](Cc2c[nH]c3c(C)cccc23)NC(=O)[C@H]([C@@H](C)O)NC(=O)[C@H](CC(N)=O)NC(=O)[C@@H](NC(C)=O)C(C)(C)SSC(C)(C)[C@@H](C(=O)N[C@@H](Cc2ccc(OCCOCCOCC[N+]3(C)CCOCC3)cc2)C(=O)N[C@@H](Cc2ccc3ccccc3c2)C(=O)NC2(C(=O)N[C@@H](CCCCNC(C)=O)C(=O)N[C@@H](CC(N)=O)C(=O)N[C@@H](Cc3cccnc3)C(=O)N(C)CC(N)=O)CCOCC2)NC1=O` [compound 455] (Ac-[Pen]NT[Trp(7-Me)]K(Ac)[Pen]Y(X53)[2Nal][Thp]K(Ac)N[3Pal][Sar]-NH2; disulfide 1-6) were, in that order, 2.1 nM and 158 A^2.
The like results for `CC(=O)N[C@H](CCCCC[N+](C)(C)C)C(=O)N[C@@H]1C(=O)N[C@@H](CC(=O)N(C)C)C(=O)N[C@@H]([C@@H](C)O)C(=O)N[C@@H](Cc2c[nH]c3c(C)cccc23)C(=O)N[C@@H](CCCCN(C)C(C)=O)C(=O)N[C@H](C(=O)N[C@@H](Cc2ccc(OCCN)cc2)C(=O)N[C@@H](Cc2ccc3ccccc3c2)C(=O)NC2(C(=O)N[C@@H](CCC(=O)O)C(=O)N[C@@H](CC(N)=O)C(=O)N[C@@H](Cc3cccnc3)C(=O)N(C)CC(=O)N(C)C)CCOCC2)C(C)(C)SSC1(C)C` [compound 163, MeCO-hk(Me)3-Pen(3)-N(N(Me)2)-T-7MeW-K(NMeAc)-Pen(3)-AEF-2Nal-THP-E-N-3Pya-Sar-CON(Me)2] (Ac-[d(hLys(Me3))][Pen]D(NMe2)T[Trp(7-Me)][Lys(Me)](Ac)[Pen][AEF][2Nal][Thp]EN[3Pal][Sar]-NMe2; disulfide 2-7 (inferred)) were, in that order, 3.2 nM and 168 A^2.
As for `CC(=O)N(C)CCCC[C@@H]1NC(=O)[C@H](C)NC(=O)[C@H]([C@@H](C)O)NC(=O)[C@H](CC(=O)N(C)C)NC(=O)[C@@H](NC(=O)CCOCCOCC[N+](C)(C)C)C(C)(C)SSC(C)(C)[C@@H](C(=O)N[C@@H](Cc2ccc(OCCCCC[N+](C)(C)C)cc2)C(=O)N[C@@H](Cc2ccc3ccccc3c2)C(=O)NC2(C(=O)N[C@@H](CCCCN(C)C(C)=O)C(=O)N[C@@H](CC(N)=O)C(=O)N[C@@H](Cc3cccnc3)C(=O)N(C)CC(=O)N(C)C)CCOCC2)NC1=O` [compound 512, cPEG3aCO-Pen(3)-N(N(Me)2)-T-A-K(NMeAc)-Pen(3)-TMAPF-2Nal-THP-K(NMeAc)-N-3Pya-Sar-CONMe2] ({Me3N+(CH2)2O(CH2)2O(CH2)2CO}-[Pen]D(NMe2)TA[Lys(Me)](Ac)[Pen]Y(X3)[2Nal][Thp][Lys(Me)](Ac)N[3Pal][Sar]-NMe2; disulfide 1-6), the IC50 at IL-23R was above 7350 nM. Besides, the EPSA in data set [1] turned out to be 205 A^2.
The like results for `CC(=O)N(C)CCCC[C@@H]1NC(=O)[C@H](Cc2c[nH]c3c(C)cccc23)NC(=O)[C@H]([C@@H](C)O)NC(=O)[C@H](CC(=O)N(C)C)NC(=O)[C@@H](NC(=O)CCCCC[N+](C)(C)C)C(C)(C)SSC(C)(C)[C@@H](C(=O)N[C@@H](Cc2ccc(OCCCCC[N+](C)(C)C)cc2)C(=O)N[C@@H](Cc2ccc3ccccc3c2)C(=O)NC2(C(=O)N[C@@H](CCCCN(C)C(C)=O)C(=O)N[C@@H](CC(N)=O)C(=O)N[C@@H](Cc3cccnc3)C(=O)N(C)CC(=O)N(C)C)CCOCC2)NC1=O` [compound 343, 5cpaCO-Pen(3)-N(N(Me)2)-T-7MeW-K(NMeAc)-Pen(3)-TMAPF-2Nal-THP-K(NMeAc)-N-3Pya-Sar-CON(Me)2] ({Hexanoyl(6-NMe3+)}-[Pen]D(NMe2)T[Trp(7-Me)][Lys(Me)](Ac)[Pen]Y(X3)[2Nal][Thp][Lys(Me)](Ac)N[3Pal][Sar]-NMe2; disulfide 1-6) were, in that order, 2 nM and 156 A^2.
The corresponding values for `CC(=O)NCCCC[C@@H]1NC(=O)[C@H](Cc2c[nH]c3c(C)cccc23)NC(=O)[C@H]([C@@H](C)O)NC(=O)[C@H](CC(N)=O)NC(=O)[C@@H](NC(=O)[C@@H](CCCC[N+](C)(C)C)NC(C)=O)C(C)(C)SSC(C)(C)[C@@H](C(=O)N[C@@H](Cc2ccc(OCCN)cc2)C(=O)N[C@@H](Cc2ccc3ccccc3c2)C(=O)NC2(C(=O)N[C@@H](CCCCNC(C)=O)C(=O)N[C@@H](CC(N)=O)C(=O)N[C@@H](Cc3cncc(C)c3)C(=O)N(C)CC(N)=O)CCOCC2)NC1=O` [compound 533, MeCO-k(Me)3-Pen(3)-N-T-7MeW-K(Ac)-Pen(3)-AEF-2Nal-THP-K(Ac)-N-5MePyridinAla-Sar-CONH2] (Ac-[dLys(Me3)][Pen]NT[Trp(7-Me)]K(Ac)[Pen][AEF][2Nal][Thp]K(Ac)N[3Pal(5-Me)][Sar]-NH2; disulfide 2-7) are 1.6 nM and 170 A^2.
Consider `CC(=O)NCCCC[C@@H]1NC(=O)[C@H](Cc2c[nH]c3c(C)cccc23)NC(=O)[C@H]([C@@H](C)O)NC(=O)[C@H](CC(N)=O)NC(=O)[C@@H](NC(=O)[C@@H](CCCNC(=N)N)NC(=O)CCOCCOCC[N+](C)(C)C)C(C)(C)SSC(C)(C)[C@@H](C(=O)N[C@@H](Cc2ccc(OCCN)cc2)C(=O)N[C@@H](Cc2ccc3ccccc3c2)C(=O)NC2(C(=O)N[C@@H](CCC(=O)O)C(=O)N[C@@H](CC(N)=O)C(=O)N[C@@H](Cc3cncc(C)c3)C(=O)N(C)CC(N)=O)CCOCC2)NC1=O` [compound 473, cPEG3aCO-r-Pen(3)-N-T-7MeW-K(Ac)-Pen(3)-AEF-2Nal-THP-E-N-5MePyridinAla-Sar-CONH2] ({Me3N+(CH2)2O(CH2)2O(CH2)2CO}-[dR][Pen]NT[Trp(7-Me)]K(Ac)[Pen][AEF][2Nal][Thp]EN[3Pal(5-Me)][Sar]-NH2; disulfide 2-7), for which the IC50 on IL-23R came out at 12 nM. In data set [1], the EPSA was determined as 202 A^2.
The corresponding values for `CC(=O)N(C)CCCC[C@@H]1NC(=O)[C@H](Cc2c[nH]c3c(C)cccc23)NC(=O)[C@H]([C@@H](C)O)NC(=O)[C@H](CC(=O)N(C)C)NC(=O)[C@@H](NC(=O)CCOCCOCC[N+](C)(C)C)C(C)(C)SSC(C)(C)[C@@H](C(=O)N[C@@H](Cc2ccc(OCCOCCOCC[N+](C)(C)C)cc2)C(=O)N[C@@H](Cc2ccc3ccccc3c2)C(=O)NC2(C(=O)N[C@@H](Cc3ccccc3)C(=O)N[C@@H](CC(N)=O)C(=O)N[C@@H](Cc3cccnc3)C(=O)N(C)CC(=O)N(C)C)CCOCC2)NC1=O` [compound 469, cPEG3aCO-Pen(3)-N(N(Me)2)-T-7MeW-K(NMeAc)-Pen(3)-APEG3F-2Nal-THP-F-N-3Pya-Sar-CON(Me)2] ({Me3N+(CH2)2O(CH2)2O(CH2)2CO}-[Pen]D(NMe2)T[Trp(7-Me)][Lys(Me)](Ac)[Pen]Y(CH2CH2OCH2CH2OCH2CH2NMe3+)[2Nal][Thp]FN[3Pal][Sar]-NMe2; disulfide 1-6) are 2.1 nM and 156 A^2.
